“Also recorded” adds a separate entry of the source.
Assays:
PTP1B = biological target: T1, PTP1B (Homo sapiens, UniProt P18031); experiment: PTP assay, 4-MUP fluorescence; assay type: biochemical; conditions: FIG. 20 fluorescence assay, percent activity
T1 sequence (P18031 1-435): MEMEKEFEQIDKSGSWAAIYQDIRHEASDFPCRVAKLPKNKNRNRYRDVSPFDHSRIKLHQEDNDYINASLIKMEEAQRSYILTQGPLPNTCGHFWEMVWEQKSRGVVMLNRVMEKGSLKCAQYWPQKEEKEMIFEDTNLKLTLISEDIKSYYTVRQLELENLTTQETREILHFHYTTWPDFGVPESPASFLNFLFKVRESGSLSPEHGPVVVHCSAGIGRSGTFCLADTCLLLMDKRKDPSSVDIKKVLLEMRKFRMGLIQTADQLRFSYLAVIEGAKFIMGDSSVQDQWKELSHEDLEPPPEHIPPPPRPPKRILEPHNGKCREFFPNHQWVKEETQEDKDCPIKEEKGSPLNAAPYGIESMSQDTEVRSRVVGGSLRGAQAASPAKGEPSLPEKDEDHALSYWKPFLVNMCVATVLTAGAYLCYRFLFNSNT
Description: (§1) Cell labeling western blot assays were performed using WT PJ3H-PTP1B purified from E. coli that was cloned into a mammalian expression plasmid. Recombinant PTP1B was expressed and purified from BL21AI cells. Recombinant proteins were labeled with respective equivalences of hydrogen peroxide (PTP1B, 10 eq; Gpx3 & GAPDH, 1.5 eq) in the presence of the indicated concentrations of sulfenic acid probes for 1 hour at room temperature with constant rocking Excess probe was removed by size-exclusion chromatography. Probe modified proteins were functionalized with a biotin reporter tag through the bioorthogonal Huisgen [3+2] Cycloaddition (“click chemistry”) then analyzed by Western blot.
The PTP assay included PTP that was prepared up to 100 nM in 32 mM HEPES, pH 7.2, 5 mM NaCl, 2.5 mM EDTA, 0.83% glycerol, 0.02% Triton X-100, and 0.002% Brij-35. The protein was dispensed to a black ckear-bottomed 96-well microplate followed by the addition of redox-based probes or DMSO and allowed to incubate for 15 minutes at 25° C. The assay was initiated with the addition of 4-methylumbelliferyl phosphate (4-MUP), and the formation of fluorescent product was measured with an excitation wavelength of 358 nm and emission wavelength of 449 nm.

oxidized PTP1B = biological target: T2, oxidized PTP1B (Homo sapiens, UniProt P18031); experiment: Adduct formation with oxidized PTP1B, mass spectroscopy analysis; assay type: binding; conditions: adduct seen by mass spectroscopy analysis;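 further: detection of covalent adducts formed between each compound and oxidized PTP1B, assessed by mass spectroscopy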
T2 sequence (P18031 1-435): T1 sequence (P18031 1-435)
Description: In further embodiments of the method, a fragment of the target protein may be used instead of the entire target protein. Certain embodiments may be directed to the binding between the compound and the target protein in the samples which may form a covalent adduct between the compound and the target protein, and the quantity of covalent adducts may be measured and compared in the samples. Any suitable assay for measuring the quantity of binding, or quantity of covalent adducts, in the two samples may be used with this method. For example, binding between the compound and the target protein may be detected using mass spectroscopy, fluorescence assays, and/or chromatography techniques. The chromatography techniques may include, but are not limited to, high-performance liquid chromatography. Further, binding between the compound and target protein may be detected using a combination of assays, for example, a combination of liquid chromatography and mass spectroscopy. The method may also be carried out in live and intact cells to determine a compound's reactivity with oxidized forms of the target protein in live cells. In certain embodiments, the potency of the compound is determined based on the degree of reduction of the quantity of adducts formed in the first sample compared with the quantity of adducts formed in the control sample, in a proportion to the quantity of compound used. In further embodiments, the potency of the compound is determined by calculating a ratio of the number of adducts formed in the first sample compared to the number of adducts formed in the control sample. A ratio of one compound can be compared directly to a ratio for another compound.
The degree of potency of the compound may be based on the degree of reduction of the quantity of adducts formed in a first sample compared with the quantity of adducts formed in the control sample in proportion to the quantity of compound used.

GPX3 = experiment: In vitro probe labeling of oxidized recombinant protein, click chemistry and Western blot; assay type: binding; conditions: H2O2 1.5 eq, probe 1 hour
Description: as §1

GAPDH = GAPDH (Homo sapiens, UniProt P04406); experiment: as above; assay type: binding; conditions: H2O2 1.5 eq, probe 1 hour
Sequence of GAPDH (P04406 whole entry, species assumed): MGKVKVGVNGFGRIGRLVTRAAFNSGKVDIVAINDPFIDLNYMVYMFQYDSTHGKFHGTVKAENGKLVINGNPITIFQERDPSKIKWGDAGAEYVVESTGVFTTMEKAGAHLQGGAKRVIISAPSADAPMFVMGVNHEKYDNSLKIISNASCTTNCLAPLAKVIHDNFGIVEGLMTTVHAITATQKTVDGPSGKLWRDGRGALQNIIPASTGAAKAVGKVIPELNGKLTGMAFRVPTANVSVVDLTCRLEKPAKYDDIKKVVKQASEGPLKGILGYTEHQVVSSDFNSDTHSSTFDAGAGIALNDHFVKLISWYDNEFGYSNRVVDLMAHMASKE
Description: as §1

A431 and HeLa cells = conditions: compared to DAz-2, identical conditions; cited from earlier work
in vitro = conditions: human, microsomes
[1] = Microsome stability, mouse liver microsomes; assay type: in vitro ADME; conditions: read-out: Microsome Stability Mouse t1/2
[2] = Plasma stability in mice (20 mg/kg IP); assay type: in vivo; conditions: mouse, intraperitoneal
Description: Plasma stability of drug candidates may be essential for maintaining acceptable drug concentration and half-life in order to achieve desirable pharmacological effects. Compounds 1a to 5a were evaluated for plasma stability in mice with PD168393 as the reference. […] At a time point of 24 hours, Compounds 1a-5a and PD168393 were almost completely degraded.

[3] = Microsome stability, human liver microsomes
[4] = Dipeptide sulfenic acid model, reaction rate

SMILES	REACTIVITY WITH OXIDIZED PTP1B (oxidized PTP1B)	further results
C#CCCCNC(=O)c1ccc(-c2ccc(NC(=O)C3CC(=O)CC(=O)C3)cc2)cc1 [Compound 3]	–	IC50 (PTP1B): ~250 µM
COc1ccc(-c2ccccc2)cc1N1CC(=O)CC1=O	Adduct	–
C#CCCCNC(=O)C1CC(=O)CC(=O)C1 [Compound 1]	–	preferential detection of control protein GPX3 (GPX3): no preferential detection; preferential detection of control protein GAPDH (GAPDH): no preferential detection
O=C1CCN(c2ccccc2)C(=O)C1	Adduct	–
C#CCCCC1CCC(=O)CC1=O (stereo not drawn) [DYn-2]	–	total signal and signal ratio of cell labeling (A431 and HeLa cells): greater total signal and signal ratio compared to DAz-2
O=C1CC(=O)N(c2cc(-c3ccccc3)ccc2O)C1	Adduct	–
O=C1CC(=O)C(Cc2ccccc2)C1 (stereo not drawn)	No adduct	–
CC1(C)CC(=O)CC(=O)C1 [drawing 1]	No adduct	–
O=C1CC(=O)C(c2ccccc2)C1 (stereo not drawn)	No adduct	–
COc1ccc(-c2ccccc2)cc1N1CC(=O)CS1(=O)=O	No adduct	–
O=C1CC(=O)N(Cc2ccccc2)C1	Adduct	–
O=C1CC(=O)N(Cc2cc(-c3ccccc3)ccc2O)C1	Adduct	–
CC(=O)CC(=O)Nc1ccc2ncnc(Nc3cccc(Br)c3)c2c1 [Compound 3a]	–	half-life (in vitro): 17 min; microsomal CLint (in vitro): 39.7 µL/min/mg; half-life [1]: 4 min; concentration at 1 h [2]: 29100 nM; concentration at 4 h [2]: 1100 nM; concentration at 8 h [2]: 100 nM; concentration at 24 h [2]: < 25 nM
C=CC(=O)Nc1ccc2ncnc(Nc3cccc(Br)c3)c2c1 [PD168393, reference compound]	–	half-life [1]: 3 min; half-life [3]: 10 min; microsomal CLint [3]: 72.4 µL/min/mg; concentration at 1 h [2]: 2000 nM; concentration at 4 h [2]: 40 nM; concentration at 8 h [2]: 50 nM; concentration at 24 h [2]: < 5 nM
O=C1CCN(Cc2ccccc2)C(=O)C1	Adduct	–
CC1(C)CC(=O)CC(=O)C1 [dimedone, reference compound]	not reactive enough to trap the sulfenic acid in PTP1B as an observable adduct; also recorded: no adduct	rate constant for reaction in the dipeptide model (pseudo first-order) [4]: 1 min⁻¹
COc1ccc(-c2ccccc2)cc1CN1CC(=O)CC1=O	Adduct	–

Continued, in another order:

REACTIVITY WITH OXIDIZED PTP1B (oxidized PTP1B)	SMILES	further results
Adduct	O=C1CS(=O)(=O)c2ccccc21	–
Adduct	O=C1CC(=O)c2ccccc21	–
No adduct	O=C1CC(c2ccccc2)S(=O)(=O)C1 (stereo not drawn)	–
No Adduct	O=C1CS(=O)(=O)Nc2ccccc21	–
No Adduct	CN1C(=O)CC(=O)c2ccccc21	–
No Adduct	O=C1CS(=O)(=O)N(Cc2ccccc2)c2ccccc21	–
No adduct	O=C1CC(=O)/C(=C\c2ccccc2)C1	–
No adduct	O=C1C/C(=C/c2ccccc2)S(=O)(=O)C1	–
Adduct	O=C1CC(=O)N(c2ccccc2)C1	–
No Adduct	CN1C(=O)CS(=O)(=O)c2ccccc21	–
No adduct	O=C1CN(c2ccccc2)S(=O)(=O)C1	–
No adduct	O=C1CN(Cc2ccccc2)S(=O)(=O)C1	–
No Adduct	O=C1CC(=O)c2ccccc2N1	–
No adduct	O=C1CC(Cc2ccccc2)S(=O)(=O)C1 (stereo not drawn)	–
No Adduct	O=C1CS(=O)(=O)c2ccccc2N1	–
Adduct	O=C1CS(=O)(=O)Cc2ccccc21	–
Adduct	CN1c2ccccc2C(=O)CS1(=O)=O	–

— patent US9977024B2, “Targeted covalent probes and inhibitors of proteins containing redox-sensitive cysteines” (THE SCRIPPS RESEARCH INSTITUTE, priority 2012, dated 2018)
